Consider 20 compounds from ChEMBL document CHEMBL1806490, “Benzisothiazolones as modulators of macrophage migration inhibitory factor” (Bioorg Med Chem Lett, 2011).

SMILES strings stand for the structures.

Experiment [1] concerns the target T1, Macrophage migration inhibitory factor (Homo sapiens, UniProt P14174).
T1 sequence (P14174 whole entry): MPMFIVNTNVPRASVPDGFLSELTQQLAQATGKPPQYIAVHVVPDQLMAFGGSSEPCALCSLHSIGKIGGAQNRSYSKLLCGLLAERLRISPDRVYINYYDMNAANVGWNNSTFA
Nature of the experiment: Inhibition of human recombinant MIF tautomerase activity using 4-hydroxyphenylpyruvate as substrate.

For experiment [2], the target named is T2, MIF/CD74 (Macrophage migration inhibitory factor and HLA-DR antigens-associated invariant chain) (Homo sapiens) (UniProt P14174+P04233). The settings on record: 4 nM.
Description: Inhibition of human recombinant biotinylated MIF/CD74 ectodomain interaction at 4 nM by streptavidin alkaline phosphatase reporter system
The target of experiment [3] is T2, MIF/CD74 (Macrophage migration inhibitory factor and HLA-DR antigens-associated invariant chain) (Homo sapiens). The following applies: 78 nM.
Description: Inhibition of human recombinant biotinylated MIF/CD74 ectodomain interaction at 78 nM by streptavidin alkaline phosphatase reporter system

Consider `CC(=O)OCc1cccc(-n2sc3cc(F)ccc3c2=O)c1`, for which the IC50 in experiment [1] was determined as 2.3 µM. With `COc1cccc(-n2sc3c(F)cccc3c2=O)c1`, in experiment [1], the IC50 is 8 µM.

In the case of `O=c1c2cc(F)c(F)cc2sn1-c1ccc(Cl)cc1`, in experiment [1], the IC50 stood at 4.9 µM. As to `O=c1c2ccc(F)c(F)c2sn1-c1ccc(Cl)cc1`, the IC50 in experiment [1] was 5.6 µM. For the compound `O=c1c2cccc(F)c2sn1-c1ccc(Cl)cc1`, the IC50 in experiment [1] came out at 2.8 µM. The same measure, in the same setting: in the case of `COc1cccc(-n2sc3cc(F)ccc3c2=O)c1` it was 25 µM; in that of `COc1cccc(-n2sc3ccc(F)cc3c2=O)c1`, 2.8 µM. Consider `O=c1c2cccc(Cl)c2sn1-c1ccc(Cl)cc1`, for which, in experiment [1], the IC50 came out at 6.6 µM.

In turn, `O=c1c2ccc(O)cc2sn1-c1ccc(Cl)cc1` showed an inhibition in experiment [2] of 23%. With `N#Cc1ccc2c(=O)n(-c3ccc(Cl)cc3)sc2c1`, in experiment [1], the half-maximal inhibitory concentration (IC50) was found to be 3.1 µM. Still for that read-out and setting: in the case of `O=c1c2cc(F)ccc2sn1-c1ccc(Cl)cc1` it was 5.6 µM; in that of `O=c1c2ccc(F)cc2sn1-c1cccc(Cl)c1`, 5 µM; in that of `COCc1cccc(-n2sc3cc(F)ccc3c2=O)c1`, 2.4 µM. On the same count and under the same terms, in the case of `O=c1c2cc(Br)ccc2sn1-c1ccc(Cl)cc1` it was 7.9 µM. Consider `O=c1c2cccc(F)c2sn1-c1cccc(O)c1`, for which the IC50 in experiment [1] was determined as 5.9 µM.

As to `N#Cc1ccc(-n2sc3cc(F)ccc3c2=O)cc1`, in experiment [3], the inhibition came out at 49%. In the case of `COc1ccc(-n2sc3ccc(F)cc3c2=O)cc1`, the IC50 in experiment [1] was 6.5 µM. On the same count and under the same terms, in the case of `O=c1c2ccc(Br)cc2sn1-c1ccc(Cl)cc1` it was 11 µM.

For the compound `O=c1c2cc([N+](=O)[O-])ccc2sn1-c1ccc(Cl)cc1`, the IC50 in experiment [1] came out at 6.2 µM.

Consider `N#Cc1ccc2sn(-c3ccc(Cl)cc3)c(=O)c2c1`, for which, in experiment [1], the IC50 is 19 µM.

As usually defined, the IC50 is the concentration that inhibits the measured activity by half. Broadly, the inhibition is the change of the read-out against control, counted positive when it falls. Lower therefore signals a weak effect.
